Values quoted from earlier work in US11738022B2, “Methods for inducing pupil dilation” (THE REGENTS OF THE UNIVERSITY OF COLORADO, A BODY CORPORATE, priority 2017, dated 2023).

System: iris
Details: men taking tamsulosin, 10 retrospective and prospective studies; cited from earlier work

## CCOc1ccccc1OCCN[C@H](C)Cc1ccc(OC)c(S(N)(=O)=O)c1 [tamsulosin]
  risk of IFIS: up to 90%
